Results reported in paper PMC11157048 (Frontiers in Pharmacology, 2024).

Columns and labels:
[1] = Pharmacokinetics of aumolertinib and HAS-719 in SD rats; details: for AUC(0-t) / AUC(0-inf) / CL/F / Cmax / Tmax / Vd/F / half-life: Sprague-Dawley, rat, plasma, po, 11 mg/kg; for CL/F: CLz/F; for Vd/F: Vz/F; for half-life: t1/2z
[2] = Pharmacokinetics in AAV8-CYP3A4*1 mice; details: C57BL/6J, mouse, in vivo, po, 16.5 mg/kg; for CL/F: CLz/F; for Vd/F: Vz/F; for half-life: t1/2z
[3] = Pharmacokinetics in AAV8-CYP3A4*12 mice; details: C57BL/6J, mouse, serum, po, 16.5 mg/kg; for CL/F: CLz/F; for Vd/F: Vz/F; for half-life: t1/2z
CYP3A4.1 = CYP3A4.1 (Homo sapiens, UniProt P08684); experiment: Enzyme kinetics of aumolertinib, recombinant CYP3A4.1; assay type: in vitro ADME; design: made in house; host or cells: Sf21 insect cells (baculovirus); details: CYP3A4.1, text value
Protocol: Specifically, first the pFastBac-CYPOR-CYP3A4 and CYPb5 plasmids are constructed, then the plasmids are transformed into DH10Bac cells to obtain the bacmid DNA. Subsequently, the bacmid DNA is transfected into Sf21 insect cells to generate high titer recombinant baculoviruses. After infecting the Sf21 cells with the high titer baculovirus, the cell suspension is collected. Finally, the cells are disrupted by sonication, and the microsomes are prepared by ultracentrifugation. To examine the expression of the target proteins and the CYP content, Western blot analysis and carbon monoxide difference spectroscopy were performed, respectively.
The reaction start, termination and sample processing are the same as described above.

[4] = Pharmacokinetics in AAV8-Ctrl mice; details: C57BL/6J, mouse, serum, po, 16.5 mg/kg; for CL/F: CLz/F; for Vd/F: Vz/F; for half-life: t1/2z
[5] = aumolertinib 11 mg/kg oral alone (Aum)
[6] = carvedilol 5 mg/kg oral 0.5 h before aumolertinib 11 mg/kg oral (Car + Aum)
[7] = telmisartan 8 mg/kg oral 0.5 h before aumolertinib 11 mg/kg oral (Tel + Aum)
[8] = aumolertinib 16.5 mg/kg oral alone (Aum)
[9] = carvedilol 7.5 mg/kg 0.5 h before aumolertinib 16.5 mg/kg oral (Car+Aum)
[10] = telmisartan 12 mg/kg 0.5 h before aumolertinib 16.5 mg/kg oral (Tel+Aum)

Sequence of CYP3A4.1 (P08684 whole entry): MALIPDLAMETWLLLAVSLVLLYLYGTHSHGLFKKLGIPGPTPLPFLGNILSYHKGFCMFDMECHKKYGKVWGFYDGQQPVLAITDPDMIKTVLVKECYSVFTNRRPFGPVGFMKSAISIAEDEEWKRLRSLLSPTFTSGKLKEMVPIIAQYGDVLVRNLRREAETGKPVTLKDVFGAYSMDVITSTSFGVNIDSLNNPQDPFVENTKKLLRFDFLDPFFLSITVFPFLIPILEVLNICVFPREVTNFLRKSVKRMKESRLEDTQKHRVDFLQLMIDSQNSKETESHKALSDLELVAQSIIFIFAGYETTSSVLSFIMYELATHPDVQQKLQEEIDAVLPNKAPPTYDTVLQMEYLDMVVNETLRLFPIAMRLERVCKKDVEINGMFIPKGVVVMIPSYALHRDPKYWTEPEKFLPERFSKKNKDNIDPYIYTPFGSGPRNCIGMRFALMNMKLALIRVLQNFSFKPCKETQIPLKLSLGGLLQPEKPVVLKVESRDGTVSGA

C=CC(=O)Nc1cc(Nc2nccc(-c3cn(C4CC4)c4ccccc34)n2)c(OC)cc1N(C)CCN(C)C [Aumolertinib]
AUC(0-t) [1, 5]: 65.9 ± 27.6 ng·h/mL
AUC(0-t) [1, 6]: 198 ± 121 ng·h/mL
AUC(0-t) [1, 7]: 153 ± 175 ng·h/mL
AUC(0-inf) [1, 5]: 65.9 ± 27.6 ng·h/mL
AUC(0-inf) [1, 6]: 203 ± 133 ng·h/mL
AUC(0-inf) [1, 7]: 153 ± 175 ng·h/mL
CL/F [1, 5]: 3090 mL/min/kg
CL/F [1, 6]: 1150 mL/min/kg
CL/F [1, 7]: 2060 mL/min/kg
Cmax [1, 5]: 9.48 ± 3.93 ng/mL
Cmax [1, 6]: 21.8 ± 8 ng/mL
Cmax [1, 7]: 8.73 ± 7.55 ng/mL
Tmax [1, 5]: 5.17 ± 1.33 h
Tmax [1, 6]: 7.33 ± 2.42 h
Tmax [1, 7]: 8.67 ± 2.73 h
Vd/F [1, 5]: 675 ± 273 L/kg
Vd/F [1, 6]: 375 ± 140 L/kg
Vd/F [1, 7]: 582 ± 299 L/kg
half-life [1, 5]: 2.62 ± 0.94 h
half-life [1, 6]: 4.44 ± 2.79 h
half-life [1, 7]: 3.21 ± 0.24 h
increase of AUC(0-t) after combination with carvedilol ([1]; carvedilol 5 mg/kg + aumolertinib 11 mg/kg oral vs aumolertinib alone): more than 3 time
AUC(0-t) [2, 8]: 1370 ng·h/mL
AUC(0-t) [2, 9]: 1730 ng·h/mL
AUC(0-t) [2, 10]: 2890 ng·h/mL
AUC(0-inf) [2, 8]: 1390 ng·h/mL
AUC(0-inf) [2, 9]: 1970 ng·h/mL
AUC(0-inf) [2, 10]: 3710 ng·h/mL
CL/F [2, 8]: 221 mL/min/kg
CL/F [2, 9]: 145 mL/min/kg
CL/F [2, 10]: 110 mL/min/kg
Cmax [2, 8]: 95.4 ± 26.4 ng/mL
Cmax [2, 9]: 96.5 ± 39 ng/mL
Cmax [2, 10]: 154 ± 62.7 ng/mL
Tmax [2, 8]: 1.64 ± 1.18 h
Tmax [2, 9]: 11.6 ± 11.7 h
Tmax [2, 10]: 16.3 ± 14.1 h
Vd/F [2, 8]: 165 ± 125 L/kg
Vd/F [2, 9]: 105 ± 73.6 L/kg
Vd/F [2, 10]: 49.9 ± 33.6 L/kg
half-life [2, 8]: 7.89 ± 2.76 h
half-life [2, 9]: 9.63 ± 8.92 h
half-life [2, 10]: 5.75 ± 3.22 h
AUC(0-t) [3, 8]: 3300 ng·h/mL
AUC(0-t) [3, 9]: 2480 ng·h/mL
AUC(0-t) [3, 10]: 4460 ng·h/mL
AUC(0-inf) [3, 8]: 3460 ng·h/mL
AUC(0-inf) [3, 9]: 2510 ng·h/mL
AUC(0-inf) [3, 10]: 8020 ng·h/mL
CL/F [3, 8]: 87.2 mL/min/kg
CL/F [3, 9]: 124 mL/min/kg
CL/F [3, 10]: 51.3 mL/min/kg
Cmax [3, 8]: 194 ± 48.8 ng/mL
Cmax [3, 9]: 143 ± 102 ng/mL
Cmax [3, 10]: 186 ± 74.4 ng/mL
Tmax [3, 8]: 5.14 ± 8.32 h
Tmax [3, 9]: 8 ± 7.57 h
Tmax [3, 10]: 9.43 ± 10.2 h
Vd/F [3, 8]: 83.2 ± 30.5 L/kg
Vd/F [3, 9]: 70.4 ± 38.6 L/kg
Vd/F [3, 10]: 90.3 ± 85 L/kg
half-life [3, 8]: 11.9 ± 5.16 h
half-life [3, 9]: 6.44 ± 2.34 h
half-life [3, 10]: 29.1 ± 28.9 h
Clint (CYP3A4.1): 0.58 μL/min/pmol CYP
Km (CYP3A4.1; human, recombinant CYP3A4.1 cell microsomes (Sf21 insect cells)): 3.2 µM
AUC(0-t) [4, 8]: 1800 ng·h/mL
AUC(0-t) [4, 9]: 1970 ng·h/mL
AUC(0-t) [4, 10]: 3230 ng·h/mL
AUC(0-inf) [4, 8]: 1850 ng·h/mL
AUC(0-inf) [4, 9]: 1980 ng·h/mL
AUC(0-inf) [4, 10]: 3810 ng·h/mL
CL/F [4, 8]: 148 mL/min/kg
CL/F [4, 9]: 145 mL/min/kg
CL/F [4, 10]: 83 mL/min/kg
Cmax [4, 8]: 177 ± 59.9 ng/mL
Cmax [4, 9]: 99.8 ± 27.5 ng/mL
Cmax [4, 10]: 163 ± 65.6 ng/mL
Tmax [4, 8]: 1.29 ± 0.49 h
Tmax [4, 9]: 17.7 ± 10.7 h
Tmax [4, 10]: 2.43 ± 1.13 h
Vd/F [4, 8]: 98.8 ± 56.3 L/kg
Vd/F [4, 9]: 38.6 ± 23.7 L/kg
Vd/F [4, 10]: 68.2 ± 44.6 L/kg
half-life [4, 8]: 8.21 ± 5.1 h
half-life [4, 9]: 3.12 ± 1.79 h
half-life [4, 10]: 9.43 ± 4.77 h
